Source: US10392391B2 (Vertex Pharmaceuticals Incorporated, priority 2012, dated 2019)
Where two headings read alike, the source gives them in different places.

Molecular target: ATR kinase (full-length ATR) (Homo sapiens (Human), UniProt Q13535)
Assay: ATR inhibition assay (radioactive-phosphate incorporation)
Format: biochemical
In short: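 Radiometric 33P incorporation by 5 nM full-length ATR into 800 μM target peptide with 10 μM [γ-33P]ATP, in 50 mM Tris/HCl pH 7.5, 10 mM MgCl2, 1 mM DTT, 7% DMSO, 25° C. Compound pre-incubated 10 minutes; reaction stopped after 24 hours, captured on phosphocellulose. Ki(app) from non-linear regression of initial rates.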

[1] = Ki(app), 5 nM full-length ATR, 10 μM ATP, 25° C.

Sequence of ATR kinase (full-length ATR) (Q13535 whole entry): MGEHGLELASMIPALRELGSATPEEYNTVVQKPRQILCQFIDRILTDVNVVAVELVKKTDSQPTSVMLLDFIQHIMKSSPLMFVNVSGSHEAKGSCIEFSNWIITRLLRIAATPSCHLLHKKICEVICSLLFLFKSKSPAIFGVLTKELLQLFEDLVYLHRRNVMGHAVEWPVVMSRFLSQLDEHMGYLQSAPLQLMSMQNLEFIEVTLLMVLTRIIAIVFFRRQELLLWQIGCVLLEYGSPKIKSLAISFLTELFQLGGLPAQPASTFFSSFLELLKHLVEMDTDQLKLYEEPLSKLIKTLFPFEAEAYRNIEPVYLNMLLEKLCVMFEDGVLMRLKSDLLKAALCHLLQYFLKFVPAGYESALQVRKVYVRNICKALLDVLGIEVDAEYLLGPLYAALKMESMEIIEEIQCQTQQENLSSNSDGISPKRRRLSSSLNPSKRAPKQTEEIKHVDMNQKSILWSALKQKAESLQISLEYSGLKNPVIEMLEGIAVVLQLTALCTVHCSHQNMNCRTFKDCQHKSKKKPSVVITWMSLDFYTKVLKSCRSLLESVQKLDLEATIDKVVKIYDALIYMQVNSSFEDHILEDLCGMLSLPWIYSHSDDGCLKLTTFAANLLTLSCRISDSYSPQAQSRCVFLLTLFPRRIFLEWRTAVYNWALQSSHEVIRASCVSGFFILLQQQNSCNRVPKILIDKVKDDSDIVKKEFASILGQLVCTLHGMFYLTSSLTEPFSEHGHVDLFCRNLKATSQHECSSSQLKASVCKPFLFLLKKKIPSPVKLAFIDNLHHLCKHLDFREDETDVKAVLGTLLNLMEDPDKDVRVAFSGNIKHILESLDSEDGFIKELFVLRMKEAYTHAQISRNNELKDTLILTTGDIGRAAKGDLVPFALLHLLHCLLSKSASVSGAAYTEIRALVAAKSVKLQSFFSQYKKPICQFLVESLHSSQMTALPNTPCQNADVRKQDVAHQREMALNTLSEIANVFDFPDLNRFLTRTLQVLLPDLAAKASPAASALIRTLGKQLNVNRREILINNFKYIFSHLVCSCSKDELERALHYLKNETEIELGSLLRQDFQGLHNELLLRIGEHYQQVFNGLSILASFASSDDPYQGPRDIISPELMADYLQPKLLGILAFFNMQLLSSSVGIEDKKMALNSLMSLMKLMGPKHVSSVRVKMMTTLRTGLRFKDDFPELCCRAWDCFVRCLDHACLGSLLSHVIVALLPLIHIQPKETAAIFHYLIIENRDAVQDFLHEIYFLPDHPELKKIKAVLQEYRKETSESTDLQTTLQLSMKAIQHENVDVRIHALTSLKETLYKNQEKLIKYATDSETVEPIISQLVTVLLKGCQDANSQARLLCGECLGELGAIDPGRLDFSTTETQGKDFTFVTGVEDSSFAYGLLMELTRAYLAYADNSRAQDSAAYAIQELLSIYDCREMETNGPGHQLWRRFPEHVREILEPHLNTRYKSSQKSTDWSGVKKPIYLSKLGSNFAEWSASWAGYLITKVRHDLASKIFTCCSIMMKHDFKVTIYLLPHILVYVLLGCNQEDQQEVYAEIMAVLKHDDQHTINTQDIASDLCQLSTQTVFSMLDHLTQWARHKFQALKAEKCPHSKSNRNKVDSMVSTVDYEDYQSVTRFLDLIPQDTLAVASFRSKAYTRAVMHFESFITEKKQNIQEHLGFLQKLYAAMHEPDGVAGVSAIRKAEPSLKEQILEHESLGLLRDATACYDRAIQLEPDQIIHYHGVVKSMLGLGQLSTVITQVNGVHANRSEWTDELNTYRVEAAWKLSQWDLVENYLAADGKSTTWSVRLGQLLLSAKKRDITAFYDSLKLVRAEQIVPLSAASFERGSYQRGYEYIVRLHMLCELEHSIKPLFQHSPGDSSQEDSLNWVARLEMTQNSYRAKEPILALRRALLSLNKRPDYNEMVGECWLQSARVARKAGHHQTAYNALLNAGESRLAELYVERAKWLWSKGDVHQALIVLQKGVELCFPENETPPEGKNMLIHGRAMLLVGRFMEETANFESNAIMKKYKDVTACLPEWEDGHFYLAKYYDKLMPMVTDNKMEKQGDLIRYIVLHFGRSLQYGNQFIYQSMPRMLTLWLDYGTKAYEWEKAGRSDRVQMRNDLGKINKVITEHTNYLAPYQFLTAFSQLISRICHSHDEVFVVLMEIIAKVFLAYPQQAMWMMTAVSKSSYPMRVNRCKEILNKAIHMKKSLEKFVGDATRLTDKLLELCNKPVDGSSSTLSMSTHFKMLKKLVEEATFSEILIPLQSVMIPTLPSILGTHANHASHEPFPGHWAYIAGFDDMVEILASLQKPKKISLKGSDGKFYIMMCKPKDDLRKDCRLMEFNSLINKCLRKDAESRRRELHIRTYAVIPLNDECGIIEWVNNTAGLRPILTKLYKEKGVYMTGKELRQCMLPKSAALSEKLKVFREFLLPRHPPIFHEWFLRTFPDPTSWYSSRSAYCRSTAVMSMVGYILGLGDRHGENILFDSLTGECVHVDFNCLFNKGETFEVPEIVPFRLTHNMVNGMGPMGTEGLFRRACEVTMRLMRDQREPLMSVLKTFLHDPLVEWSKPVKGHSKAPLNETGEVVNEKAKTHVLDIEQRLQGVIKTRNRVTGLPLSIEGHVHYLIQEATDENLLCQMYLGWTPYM

SMILES	Ki [1]	Ki
Nc1nn2cc(Cl)cnc2c1C(=O)Nc1cnccc1N1CCN2CCC1CC2 [I-N-56, N-(4-(1,4-diazabicyclo[3.2.2]nonan-4-yl)pyridin-3-yl)-2-amino-6-chloropyrazolo[1,5-a]pyrimidine-3-carboxamide]	10 to 1000 nM	
Nc1nn2cc(F)cnc2c1C(=O)Nc1cncc(F)c1N1CCN(C2CCOC2)CC1 (stereo not shown) [I-N-122, 2-amino-6-fluoro-N-(5-fluoro-4-(4-(tetrahydrofuran-3-yl)piperazin-1-yl)pyridin-3-yl)pyrazolo[1,5-a]pyrimidine-3-carboxamide]	10 to 1000 nM	
Nc1nn2cc(F)cnc2c1C(=O)Nc1cnccc1N1CCN(C2CCOCC2)CC1 [I-N-11, 2-amino-6-fluoro-N-(4-(4-(tetrahydro-2H-pyran-4-yl)piperazin-1-yl)pyridin-3-yl)pyrazolo[1,5-a]pyrimidine-3-carboxamide]	10 to 1000 nM	
CN1CCN2CCN(c3ccncc3NC(=O)c3c(N)nn4cc(F)cnc34)CC2C1=O (stereo not shown) [I-N-233, 2-amino-6-fluoro-N-(4-(8-methyl-9-oxohexahydro-1H-pyrazino[1,2-a]pyrazin-2(6H)-yl)pyridin-3-yl)pyrazolo[1,5-a]pyrimidine-3-carboxamide]	10 to 1000 nM	
Cn1cc(-c2ccncc2NC(=O)c2c(N)nn3cc(F)cnc23)ccc1=O [I-C-59, 2-amino-6-fluoro-N-(1-methyl-6-oxo-1,6-dihydro-[3,4′-bipyridin]-3′-yl)pyrazolo[1,5-a]pyrimidine-3-carboxamide]	10 to 1000 nM	
Nc1nn2cc(F)cnc2c1C(=O)Nc1cncc(Cl)c1N1CCC(C(=O)N2CCN3CCC2CC3)CC1 [I-G-66, N-(4-(4-(1,4-diazabicyclo[3.2.2]nonane-4-carbonyl)piperidin-1-yl)-5-chloropyridin-3-yl)-2-amino-6-fluoropyrazolo[1,5-a]pyrimidine-3-carboxamide]	10 to 1000 nM	
Nc1nn2cc(Cl)cnc2c1C(=O)Nc1cnccc1N1CCC(N)CC1 [I-N-86, 2-amino-N-(4-(4-aminopiperidin-1-yl)pyridin-3-yl)-6-chloropyrazolo[1,5-a]pyrimidine-3-carboxamide]	10 to 1000 nM	
Nc1nn2cc(F)cnc2c1C(=O)Nc1cnccc1-c1ccncc1 [I-C-24, N-([4,4′-bipyridin]-3-yl)-2-amino-6-fluoropyrazolo[1,5-a]pyrimidine-3-carboxamide]	10 to 1000 nM	
COC1(C)CN(C(=O)C2CCN(c3c(F)cncc3NC(=O)c3c(N)nn4cc(F)cnc34)CC2)C1 [I-G-75, 2-amino-6-fluoro-N-(5-fluoro-4-(4-(3-methoxy-3-methylazetidine-1-carbonyl)piperidin-1-yl)pyridin-3-yl)pyrazolo[1,5-a]pyrimidine-3-carboxamide]	10 to 1000 nM	
Nc1nn2cc(F)cnc2c1C(=O)Nc1cncc(F)c1N1CCC(C(=O)N2CCC2)CC1 [I-G-8, 2-amino-N-(4-(4-(azetidine-1-carbonyl)piperidin-1-yl)-5-fluoropyridin-3-yl)-6-fluoropyrazolo[1,5-a]pyrimidine-3-carboxamide]	10 to 1000 nM	
COc1ccncc1NC(=O)c1c(N)nn2cc(CC#N)cnc12 [I-O-26, 2-amino-6-(cyanomethyl)-N-(4-methoxypyridin-3-yl)pyrazolo[1,5-a]pyrimidine-3-carboxamide]	< 10 nM	
Nc1nn2cc(Cl)cnc2c1C(=O)Nc1cnccc1N1CCC(N2CC(F)(F)C2)CC1 [I-N-108, 2-amino-6-chloro-N-(4-(4-(3,3-difluoroazetidin-1-yl)piperidin-1-yl)pyridin-3-yl)pyrazolo[1,5-a]pyrimidine-3-carboxamide]	10 to 1000 nM	
CN1CCN(C(=O)C2(C#N)CCN(c3c(F)cncc3NC(=O)c3c(N)nn4cc(F)cnc34)CC2)CC1 [I-G-25, 2-amino-N-(4-(4-cyano-4-(4-methylpiperazine-1-carbonyl)piperidin-1-yl)-5-fluoropyridin-3-yl)-6-fluoropyrazolo[1,5-a]pyrimidine-3-carboxamide]	10 to 1000 nM	
CN1CCC[C@@H]1COc1ccncc1NC(=O)c1c(N)nn2cc(Cl)cnc12 [I-O-49, (R)-2-amino-6-chloro-N-(4-((1-methylpyrrolidin-2-yl)methoxy)pyridin-3-yl)pyrazolo[1,5-a]pyrimidine-3-carboxamide]	10 to 1000 nM	
CN1CCC(NC(=O)C2CCN(c3c(F)cncc3NC(=O)c3c(N)nn4cc(F)cnc34)CC2)C1 (stereo not shown) [I-G-24, 2-amino-6-fluoro-N-(5-fluoro-4-(4-((1-methylpyrrolidin-3-yl)carbamoyl)piperidin-1-yl)pyridin-3-yl)pyrazolo[1,5-a]pyrimidine-3-carboxamide]	10 to 1000 nM	
Nc1nn2cc(F)cnc2c1C(=O)Nc1cnccc1-c1cccnc1Cl [I-C-37, 2-amino-N-(2-chloro-[3,4′-bipyridin]-3′-yl)-6-fluoropyrazolo[1,5-a]pyrimidine-3-carboxamide]		1000 to 5000 nM
CC(C)N1CCN(c2ccncc2NC(=O)c2c(N)nn3cc(Cl)cnc23)CC1 [I-N-39, 2-amino-6-chloro-N-(4-(4-isopropylpiperazin-1-yl)pyridin-3-yl)pyrazolo[1,5-a]pyrimidine-3-carboxamide]	10 to 1000 nM	

SMILES	Ki [1]	Ki
Nc1nn2cc(F)cnc2c1C(=O)Nc1cnccc1N1CCN(C2COC2)C2CC21 (stereo not shown) [I-N-31, 2-amino-6-fluoro-N-(4-(5-(oxetan-3-yl)-2,5-diazabicyclo[4.1.0]heptan-2-yl)pyridin-3-yl)pyrazolo[1,5-a]pyrimidine-3-carboxamide]	1000 to 5000 nM	
Nc1nn2cc(Cl)cnc2c1C(=O)Nc1cnccc1OCC(F)(F)F [I-O-59, 2-amino-6-chloro-N-(4-(2,2,2-trifluoroethoxy)pyridin-3-yl)pyrazolo[1,5-a]pyrimidine-3-carboxamide]	10 to 1000 nM	
CN1CCN(c2cc(N)ncc2NC(=O)c2c(N)nn3cc(Cl)cnc23)CC1 [I-N-50, 2-amino-N-(6-amino-4-(4-methylpiperazin-1-yl)pyridin-3-yl)-6-chloropyrazolo[1,5-a]pyrimidine-3-carboxamide]	10 to 1000 nM	
Nc1nn2cc(F)cnc2c1C(=O)Nc1cnccc1C1CCN(C2COC2)CC1 [I-C-10, 2-amino-6-fluoro-N-(4-(1-(oxetan-3-yl)piperidin-4-yl)pyridin-3-yl)pyrazolo[1,5-a]pyrimidine-3-carboxamide]	10 to 1000 nM	
CCOc1ccncc1NC(=O)c1c(N)nn2cc(F)cnc12 [I-O-14, 2-amino-N-(4-ethoxypyridin-3-yl)-6-fluoropyrazolo[1,5-a]pyrimidine-3-carboxamide]	10 to 1000 nM	
Nc1nn2cc(F)cnc2c1C(=O)Nc1cnccc1N1CCN(S(=O)(=O)C2COC2)CC1 [I-N-195, 2-amino-6-fluoro-N-(4-(4-(oxetan-3-ylsulfonyl)piperazin-1-yl)pyridin-3-yl)pyrazolo[1,5-a]pyrimidine-3-carboxamide]	10 to 1000 nM	
CC1(N2CCN(C(=O)C3CCN(c4c(F)cncc4NC(=O)c4c(N)nn5cc(F)cnc45)CC3)CC2)COC1 [I-G-92, 2-amino-6-fluoro-N-(5-fluoro-4-(4-(4-(3-methyloxetan-3-yl)piperazine-1-carbonyl)piperidin-1-yl)pyridin-3-yl)pyrazolo[1,5-a]pyrimidine-3-carboxamide]	10 to 1000 nM	
CN(C)CC1CCN(c2ccncc2NC(=O)c2c(N)nn3cc(Cl)cnc23)CC1 [I-N-45, 2-amino-6-chloro-N-(4-(4-((dimethylamino)methyl)piperidin-1-yl)pyridin-3-yl)pyrazolo[1,5-a]pyrimidine-3-carboxamide]	10 to 1000 nM	
Nc1nn2cc(F)cnc2c1C(=O)Nc1cnccc1C1CCN(S(=O)(=O)C2CC2)CC1 [I-C-47, 2-amino-N-(4-(1-(cyclopropylsulfonyl)piperidin-4-yl)pyridin-3-yl)-6-fluoropyrazolo[1,5-a]pyrimidine-3-carboxamide]	10 to 1000 nM	
Cc1nc(N2CCN(C)CC2)ccc1-c1ccncc1NC(=O)c1c(N)nn2cc(F)cnc12 [I-C-40, 2-amino-6-fluoro-N-(2-methyl-6-(4-methylpiperazin-1-yl)-[3,4′-bipyridin]-3′-yl)pyrazolo[1,5-a]pyrimidine-3-carboxamide]	10 to 1000 nM	
Nc1nn2cc(F)cnc2c1C(=O)Nc1cncc(F)c1N1CCN(S(=O)(=O)C2CC2)CC1 [I-N-159, 2-amino-N-(4-(4-(cyclopropylsulfonyl)piperazin-1-yl)-5-fluoropyridin-3-yl)-6-fluoropyrazolo[1,5-a]pyrimidine-3-carboxamide]	10 to 1000 nM	
Cc1ncc(-c2ccncc2NC(=O)c2c(N)nn3cc(F)cnc23)n1C [I-C-77, 2-amino-N-(4-(1,2-dimethyl-1H-imidazol-5-yl)pyridin-3-yl)-6-fluoropyrazolo[1,5-a]pyrimidine-3-carboxamide]	10 to 1000 nM	
CN1CC2CN(c3c(Cl)cncc3NC(=O)c3c(N)nn4cc(F)cnc34)CC2C1 (stereo not shown) [I-N-286, 2-amino-N-(5-chloro-4-(5-methylhexahydropyrrolo[3,4-c]pyrrol-2(1H)-yl)pyridin-3-yl)-6-fluoropyrazolo[1,5-a]pyrimidine-3-carboxamide]	10 to 1000 nM	
CCN1CCN(c2ccncc2NC(=O)c2c(N)nn3cc(Cl)cnc23)CC1 [I-N-51, 2-amino-6-chloro-N-(4-(4-ethylpiperazin-1-yl)pyridin-3-yl)pyrazolo[1,5-a]pyrimidine-3-carboxamide]	10 to 1000 nM	
CS(=O)(=O)C1CN(C(=O)C2CCN(c3ccncc3NC(=O)c3c(N)nn4cc(F)cnc34)CC2)C1 [I-G-89, 2-amino-6-fluoro-N-(4-(4-(3-(methylsulfonyl)azetidine-1-carbonyl)piperidin-1-yl)pyridin-3-yl)pyrazolo[1,5-a]pyrimidine-3-carboxamide]	10 to 1000 nM	
CN1CCC(S(=O)(=O)N2CCN(c3c(F)cncc3NC(=O)c3c(N)nn4cc(F)cnc34)CC2)CC1 [I-N-175, 2-amino-6-fluoro-N-(5-fluoro-4-(4-((1-methylpiperidin-4-yl)sulfonyl)piperazin-1-yl)pyridin-3-yl)pyrazolo[1,5-a]pyrimidine-3-carboxamide]	10 to 1000 nM	
Nc1nn2cc(F)cnc2c1C(=O)Nc1cnccc1N1CCN([C@H]2CCOC2)CC1 [I-N-12, (S)-2-amino-6-fluoro-N-(4-(4-(tetrahydrofuran-3-yl)piperazin-1-yl)pyridin-3-yl)pyrazolo[1,5-a]pyrimidine-3-carboxamide]	10 to 1000 nM	
